Data: the supplement of paper PMC10307832

Experiments:
Assay in all cases: relative viability (nuclei count vs DMSO), 5 days (fraction); higher = more cells survive
[1] = compound: CC1=C(C(=NN1)C)CC2=C(C3=C(S2)N(C(=O)N(C3=O)C)CC(C)C)C(=O)N4C[C@@H](CO4)O + Nc1ncn([C@H]2C[C@H](O)[C@@H](CO)O2)c(=O)n1 [Decitabine] (partner 2 µM)
Outline: (§1)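 Relative viability divides the nuclei count in treated wells by that in vehicle wells. Lung cancer cell lines were seeded in 1536-well plates, dosed by pin tool the next day, and fixed and stained after 5 days in one step with final 0.05% Triton X-100, 1% formaldehyde and 1 ug/ml Hoechst. Dosing was a single drug or a fixed anchor-drug dose plus five library-drug doses (not always all listed) in √10 steps, and values are medians of duplicate plates imaged at 4×.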

[2] = compound: CC1=C(C(=NN1)C)CC2=C(C3=C(S2)N(C(=O)N(C3=O)C)CC(C)C)C(=O)N4C[C@@H](CO4)O + O=C(CCCCCCC(=O)Nc1ccccc1)NO [Vorinostat] (partner 1 µM)
Outline: as §1

[3] = compound: Cc1ccccc1C(C(=O)NC1CCCCC1)N(C(=O)Cn1ccnc1C)c1cccc(F)c1 [IDH-C35] + CS(=O)(=O)CCNCc1ccc(-c2ccc3ncnc(Nc4ccc(OCc5cccc(F)c5)c(Cl)c4)c3c2)o1 [Lapatinib] (partner 2 µM)
Outline: as §1

[4] = compound: Cc1ccccc1C(C(=O)NC1CCCCC1)N(C(=O)Cn1ccnc1C)c1cccc(F)c1 [IDH-C35] + Cc1nc(NC(=O)N2CCC[C@H]2C(N)=O)sc1-c1ccnc(C(C)(C)C(F)(F)F)c1 [Alpelisib] (partner 2 µM)
Outline: as §1

Row | Cell Line | relative viability ([1]; first compound 0.0025 µM) | relative viability ([1]; first compound 0.007906 µM) | relative viability ([1]; first compound 0.025 µM) | relative viability ([1]; first compound 0.07906 µM) | relative viability ([1]; first compound 0.25 µM) | relative viability ([2]; first compound 0.0025 µM) | relative viability ([2]; first compound 0.007906 µM) | relative viability ([2]; first compound 0.025 µM) | relative viability ([2]; first compound 0.07906 µM) | relative viability ([2]; first compound 0.25 µM) | relative viability ([3]; first compound 0.08 µM) | relative viability ([3]; first compound 0.253 µM) | relative viability ([3]; first compound 0.8 µM) | relative viability ([3]; first compound 2.53 µM) | relative viability ([3]; first compound 8 µM) | relative viability ([4]; first compound 0.08 µM) | relative viability ([4]; first compound 0.253 µM) | relative viability ([4]; first compound 0.8 µM) | relative viability ([4]; first compound 2.53 µM) | relative viability ([4]; first compound 8 µM)
1 | BEN | 0.626 | 0.708 | 0.613 | 0.622 | 0.614 | 0.553 | 0.493 | 0.593 | 0.527 | 0.536 | 0.796 | 0.805 | 0.724 | 0.718 | 0.865 | 0.988 | 0.927 | 0.885 | 0.975 | 0.942
2 | COR-L23 | 0.439 | 0.41 | 0.406 | 0.304 | 0.381 | 0.499 | 0.378 | 0.37 | 0.422 | 0.484 | 1.05 | 1.09 | 0.932 | 1 | 0.938 | 0.759 | 0.765 | 0.782 | 0.769 | 0.746
3 | COR-L 105 | 0.574 | 0.632 | 0.653 | 0.644 | 0.615 | 0.89 | 0.918 | 0.374 | 0.86 | 0.744 | 0.33 | 0.359 | 0.337 | 0.34 | 0.369 | 1.04 | 1.08 | 1.13 | 0.882 | 0.99
4 | EKVX | 0.365 | 0.311 | 0.309 | 0.267 | 0.369 | 0.863 | 0.756 | 0.806 | 0.604 | 0.416 | 0.201 | 0.205 | 0.208 | 0.183 | 0.205 | 0.868 | 0.858 | 0.852 | 0.819 | 0.831
5 | EMC-BAC-2 | 1.03 | 1.01 | 1.03 | 1.03 | 1.03 | 0.487 | 0.513 | 0.386 | 0.565 | 0.538 | 0.916 | 0.86 | 0.868 | 0.895 | 0.955 | 0.79 | 0.665 | 0.739 | 0.756 | 0.709
6 | EPLC-272H | 0.374 | 0.346 | 0.369 | 0.354 | 0.352 | 0.454 | 0.447 | 0.61 | 0.438 | 0.351 | 1.21 | 1.04 | 0.912 |  | 0.802 | 1.04 | 0.942 | 0.895 |  | 0.897
7 | H3255 | 0.567 | 0.446 | 0.568 | 0.651 | 0.641 | 0.969 | 0.716 | 0.821 | 0.844 | 0.854 | 0.246 | 0.244 | 0.283 | 0.304 | 0.414 | 0.681 | 0.822 | 0.633 | 0.774 | 0.637
8 | HARA | 0.578 | 0.578 | 0.653 | 0.581 | 0.524 | 0.511 | 0.657 | 0.653 | 0.516 | 0.509 | 0.784 | 0.84 | 0.828 | 0.78 | 0.809 | 0.727 | 0.8 | 0.874 | 0.78 | 0.729
9 | HCC-15 | 0.707 | 0.621 | 0.692 | 0.662 | 0.781 | 1.04 | 0.829 | 0.839 | 0.875 | 0.81 | 0.892 | 0.776 | 0.931 | 0.776 | 0.781 | 0.904 | 0.844 | 0.822 | 0.854 | 0.852
10 | HCC-44 | 0.978 | 0.961 | 0.949 | 0.912 | 1.06 | 1.08 | 1.12 | 1.03 | 1.05 | 1.18 | 0.946 | 1.02 | 0.979 | 1.04 | 1.02 | 0.821 | 0.764 | 0.737 | 0.827 | 0.763
11 | HCC-78 | 0.658 | 0.774 | 0.644 | 0.636 | 0.631 | 0.521 | 0.552 | 0.497 | 0.518 | 0.439 | 1.02 | 0.732 | 0.841 | 0.606 | 0.355 | 0.361 | 0.323 | 0.322 | 0.397 | 0.331
12 | HCC-366 | 0.297 | 0.417 | 0.399 | 0.365 | 0.372 | 0.438 | 0.365 | 0.348 | 0.399 | 0.447 | 1.12 | 1.03 | 1.04 | 1.08 | 1.12 | 0.476 | 0.311 | 0.387 | 0.403 | 0.352
13 | HCC-827 | 0.216 | 0.34 | 0.323 | 0.408 | 0.302 | 0.805 | 0.91 | 0.837 | 0.843 | 1.01 | 0.183 | 0.211 | 0.173 | 0.218 | 0.228 | 0.917 | 0.897 | 1.04 | 1 | 0.75
14 | HOP-62 | 0.197 | 0.218 | 0.268 | 0.165 | 0.279 | 0.575 | 0.895 | 0.496 | 0.631 | 0.65 | 0.945 | 1.06 | 1.01 |  | 0.948 | 1.07 | 0.876 | 0.953 |  | 0.85
15 | LC-2-ad | 0.776 | 0.8 | 0.877 | 0.8 | 0.871 | 0.696 | 0.658 | 0.718 | 0.705 | 0.729 | 0.998 | 0.978 | 0.924 | 0.904 | 0.973 | 0.888 | 0.815 | 0.834 | 0.894 | 0.921
16 | LCLC-97TM1 | 0.265 | 0.237 | 0.219 | 0.242 | 0.224 | 0.984 | 1.03 | 0.575 | 0.72 | 0.776 | 0.672 | 0.825 | 1.1 |  | 0.869 | 0.289 | 0.213 | 0.242 |  | 0.242
